Assays:
[1] = Open label comparative pharmacokinetic study of oral teriparatide tablet in healthy volunteers; type: in vivo, human; settings: oral tablet 0.75 mg teriparatide + SNAC + SBTI, with 150 ml of 3 mg/ml sodium bicarbonate solution vs 150 ml water; ten healthy volunteers, fasted; plasma
Method: An open label comparative pharmacokinetic study was performed on ten healthy volunteers. On different visits, each volunteer received the same oral tablet containing 0.75 mg of teriparatide, a recombinant form of parathyroid hormone (1-34) (PTH(1-34)). In the first visit, the tablet was administered with 150 ml water, whereas in the second visit the tablet was administered with 150 ml of 3 mg/ml sodium bicarbonate aqueous solution.
The formulation was composed of teriparatide (0.75 mg), SNAC (sodium 8-N-(2-hydroxybenzoyl)aminocaprylate), soybean trypsin inhibitor (SBTI) and a small amount of magnesium stearate.
Tablets were administered in the morning after an 8-hour overnight fast. At each visit a standard meal was provided 3 hours after drug administration. […] There was a two week period between the two visits.
To determine PTH(1-34) concentrations, blood samples (4 ml each) were drawn via an indwelling catheter from the forearm vein at predetermined time points during each visit. The cannula was flushed with 1.5 ml normal saline after each sampling. In addition, to avoid sample dilution, 1 ml of blood was drawn and discarded before the next sample. […] PTH(1-34) levels were measured using an IDS-iSYS automated assay for the measurement of intact PTH(1-34) in human plasma or serum. […] Relative absorption was determined based on the AUC (area under curve) parameter.

[2] = Dissolution test: release of SNAC from tablet formulations in simulated gastric buffer; type: physicochemical; settings: tablet with 100 mg sodium bicarbonate vs tablet without, trypsin inhibitor, teriparatide, 100 ml simulated gastric buffer without pepsin, pH 2.0, 37° C., USP 23 Apparatus 2, 50 rpm
Method: The tablets were in a form of a homogeneous mixture.
Each tablet formulation was subjected to a dissolution test in 100 ml of simulated gastric buffer (without pepsin), pH 2.0, at 37° C., according to USP 23 Apparatus 2 (paddle) with 50 rotations per minute. The amount of released SNAC in each sample was determined chromatographically, using an HPLC apparatus with Cosmosil™ 5 C18-MS-II (4.6 ID×250 mm) column. Mobile phase consisted of 50% acetonitrile and 50% phosphoric acid solution (0.1%). Flow rate was 1 ml/minute and injection volume was 25 μl. Amount of released SNAC was calculated as a percentage of the amount of SNAC in the formulation.

Row | SMILES | increase in absorption of PTH(1-34) (relative absorption based on AUC) [1] | dissolution of SNAC in tablets (released SNAC as a percentage of the amount of SNAC in the formulation) [2]
1 | CC[C@H](C)[C@H](NC(=O)[C@H](CCC(=O)O)NC(=O)[C@H](CO)NC(=O)[C@@H](NC(=O)[C@@H](N)CO)C(C)C)C(=O)N[C@@H](CCC(N)=O)C(=O)N[C@@H](CC(C)C)C(=O)N[C@@H](CCSC)C(=O)N[C@@H](Cc1cnc[nH]1)C(=O)N[C@@H](CC(N)=O)C(=O)N[C@@H](CC(C)C)C(=O)NCC(=O)N[C@@H](CCCCN)C(=O)N[C@@H](Cc1cnc[nH]1)C(=O)N[C@@H](CC(C)C)C(=O)N[C@@H](CC(N)=O)C(=O)N[C@@H](CO)C(=O)N[C@@H](CCSC)C(=O)N[C@@H](CCC(=O)O)C(=O)N[C@@H](CCCN=C(N)N)C(=O)N[C@H](C(=O)N[C@@H](CCC(=O)O)C(=O)N[C@@H](Cc1c[nH]c2ccccc12)C(=O)N[C@@H](CC(C)C)C(=O)N[C@@H](CCCN=C(N)N)C(=O)N[C@@H](CCCCN)C(=O)N[C@@H](CCCCN)C(=O)N[C@@H](CC(C)C)C(=O)N[C@@H](CCC(N)=O)C(=O)N[C@@H](CC(=O)O)C(=O)N[C@H](C(=O)N[C@@H](Cc1cnc[nH]1)C(=O)N[C@@H](CC(N)=O)C(=O)N[C@@H](Cc1ccccc1)C(=O)O)C(C)C)C(C)C [PTH(1-34), teriparatide] | about 35% | –
2 | O=C(O)CCCCCCCNC(=O)c1ccccc1O [SNAC, sodium 8-N-(2-hydroxybenzoyl)aminocaprylate] | – | considerably enhanced

— US12076373B2, “Formulations for oral administration of active agents” (Entera Bio Ltd., priority 2015, dated 2024)
